According to ChEMBL document CHEMBL1201862, “PubChem BioAssay data set” (2004):
The source made the active and inactive calls.

Legend:
Galanin receptor type 3 = Galanin receptor type 3 (Homo sapiens, UniProt O60755); experiment: Fluorescence-based cell-based primary high throughput dose response assay to identify antagonists of the Galanin Receptor 3 (GalR3).; assay type: functional
cells [1] = assay type: functional, cell-based; settings: HEK-CNG
[2] = HEp-2 cell cytotoxicity, dose response, cytotoxicity control for RSV inhibitor project, HTS (AID 2410); assay type: functional; settings: human respiratory syncytial virus
[3] = biological target: Endoplasmic reticulum aminopeptidase 1 (Homo sapiens, UniProt Q9NZ08); experiment: ERAP1 aminopeptidase inhibitors, dose response, biochemical, cherry-pick, set 2, plate reader (AID 743314)
Sequence of Endoplasmic reticulum aminopeptidase 1 (Q9NZ08 whole entry): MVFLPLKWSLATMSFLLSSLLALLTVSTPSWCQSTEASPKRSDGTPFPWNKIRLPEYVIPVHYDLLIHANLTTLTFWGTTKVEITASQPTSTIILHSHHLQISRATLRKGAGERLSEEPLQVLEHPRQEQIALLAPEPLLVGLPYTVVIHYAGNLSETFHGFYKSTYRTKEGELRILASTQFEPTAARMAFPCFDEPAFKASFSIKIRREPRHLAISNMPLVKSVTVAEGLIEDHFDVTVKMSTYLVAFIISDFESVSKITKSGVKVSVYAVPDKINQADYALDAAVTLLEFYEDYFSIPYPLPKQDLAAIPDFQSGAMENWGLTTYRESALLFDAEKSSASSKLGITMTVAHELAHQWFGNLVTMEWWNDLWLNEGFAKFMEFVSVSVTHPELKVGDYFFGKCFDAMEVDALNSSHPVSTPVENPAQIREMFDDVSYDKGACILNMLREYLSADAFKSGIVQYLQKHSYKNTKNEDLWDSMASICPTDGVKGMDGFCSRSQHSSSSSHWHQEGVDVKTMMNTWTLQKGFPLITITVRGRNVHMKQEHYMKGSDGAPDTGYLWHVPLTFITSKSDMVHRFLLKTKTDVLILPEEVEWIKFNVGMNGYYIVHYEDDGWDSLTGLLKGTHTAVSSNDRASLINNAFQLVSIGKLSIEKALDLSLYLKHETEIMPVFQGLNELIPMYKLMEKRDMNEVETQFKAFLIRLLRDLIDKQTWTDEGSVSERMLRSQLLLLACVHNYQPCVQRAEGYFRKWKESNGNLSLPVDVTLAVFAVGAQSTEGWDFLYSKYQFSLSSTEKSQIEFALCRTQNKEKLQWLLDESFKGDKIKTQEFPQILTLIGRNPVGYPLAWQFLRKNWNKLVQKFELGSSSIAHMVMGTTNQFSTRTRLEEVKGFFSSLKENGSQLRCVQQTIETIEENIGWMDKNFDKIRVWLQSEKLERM

[4] = Shn3 3'UTR reporter inhibitors, dose response, cell-based, Clone20 osteoblasts, firefly luciferase, cherry-picked (AID 624132); assay type: functional;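 note: firefly luciferase luminescence from reporter carrying the Shn3 3'UTR in osteoblasts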
[5] = reduction of Shn3 3'UTR firefly luciferase signal, dose response, Schnurri-3 inhibitor project, cell-based, Clone20 osteoblasts, cherry-pick, set 2 (AID 720490); assay type: functional;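 note: actives lower the luminescence signal as inhibitors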
cells [6] = assay type: functional, cell-based
[7] = biological target: T1, Trace amine-associated receptor 1 (Homo sapiens, UniProt Q96RJ0); experiment: Fluorescence-based cell-based high throughput dose response assay to identify agonists of the human trace amine associated receptor 1 (TAAR1).; assay type: functional
T1 sequence (Q96RJ0 whole entry): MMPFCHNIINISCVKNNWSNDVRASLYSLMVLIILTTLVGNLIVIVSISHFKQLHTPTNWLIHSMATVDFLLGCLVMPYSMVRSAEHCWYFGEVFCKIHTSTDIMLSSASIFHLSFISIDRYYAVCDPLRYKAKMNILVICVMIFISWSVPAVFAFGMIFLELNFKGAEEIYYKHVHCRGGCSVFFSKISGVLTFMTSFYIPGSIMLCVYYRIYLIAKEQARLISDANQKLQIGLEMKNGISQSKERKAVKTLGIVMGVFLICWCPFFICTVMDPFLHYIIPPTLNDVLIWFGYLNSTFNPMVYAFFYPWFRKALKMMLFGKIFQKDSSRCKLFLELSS

[8] = biological target: T1, Trace amine-associated receptor 1; experiment: Counterscreen for agonists of the human trace amine associated receptor 1 (hTAAR1): Fluorescence-based cell-based high throughput dose response assay to identify hTAAR1 agonist that also desensitize TAAR1 receptor response.; assay type: functional
cells [9] = assay type: functional, cell-based; remark: listed apart in the source
[10] = biological target: COUP transcription factor 2 (Homo sapiens, UniProt P24468); experiment: Luminescence-based cell-based high throughput dose response assay to identify inhibitors of COUP-TFII (NR2F2).; assay type: functional;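 note: HEK293 cells transiently cotransfected with COUP-TFII expression vector and reporter; luciferase reporter luminescence driven by COUP-TFII from the pX2-168 reporter plasmid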
Sequence of COUP transcription factor 2 (P24468 whole entry): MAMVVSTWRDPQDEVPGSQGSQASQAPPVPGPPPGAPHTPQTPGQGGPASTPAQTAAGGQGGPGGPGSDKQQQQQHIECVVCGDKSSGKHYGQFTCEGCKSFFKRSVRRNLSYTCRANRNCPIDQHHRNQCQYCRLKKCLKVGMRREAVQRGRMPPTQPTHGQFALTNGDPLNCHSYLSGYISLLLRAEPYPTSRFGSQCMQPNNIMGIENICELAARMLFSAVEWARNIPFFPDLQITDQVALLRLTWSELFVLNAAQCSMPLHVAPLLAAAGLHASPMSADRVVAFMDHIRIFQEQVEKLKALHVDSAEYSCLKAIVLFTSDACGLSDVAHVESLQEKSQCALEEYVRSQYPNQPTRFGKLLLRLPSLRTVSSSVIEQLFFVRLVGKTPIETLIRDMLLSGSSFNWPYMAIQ

[11] = Late stage assay provider results from the probe development effort to identify selective inhibitors of heat shock protein 90 (HSP90): Absorbance-based cell proliferation assay in SKBR3 cells.; assay type: functional; settings: SK-BR-3
[12] = Late stage assay provider results from the probe development effort to identify selective inhibitors of heat shock protein 90 (HSP90): Absorbance-based cell proliferation assay in MCF7 cells.; assay type: functional
[13] = A Cell-Based Confirmatory Screen for Compounds that Inhibit VEEV, TC-83 (7).; assay type: functional

Sequence of Galanin receptor type 3 (O60755 whole entry): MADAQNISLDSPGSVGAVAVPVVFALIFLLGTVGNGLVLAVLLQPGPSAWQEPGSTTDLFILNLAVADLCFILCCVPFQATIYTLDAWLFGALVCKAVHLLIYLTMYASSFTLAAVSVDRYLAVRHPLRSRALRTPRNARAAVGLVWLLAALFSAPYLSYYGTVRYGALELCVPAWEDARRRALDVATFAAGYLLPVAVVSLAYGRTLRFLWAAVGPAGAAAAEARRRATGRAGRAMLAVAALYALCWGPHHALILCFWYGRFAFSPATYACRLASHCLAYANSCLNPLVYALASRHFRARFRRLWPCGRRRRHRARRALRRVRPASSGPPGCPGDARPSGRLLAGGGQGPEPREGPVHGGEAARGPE

For `Cc1cc(Br)cn2c(Cc3ccccc3C(F)(F)F)c(-c3ccco3)nc12`, the IC50 (Galanin receptor type 3) was 14.5 µM (inactive) and the EC50 (cells [1]) was > 29.9 µM (inactive).
For `COc1ccc(-c2cc3ccc(O)cc3oc2=O)cc1`, the CC50 [2] was 49.4 µM (active) and the AC50 [3] was 3.06 µM (active).
For `COc1ccc(CNC(=O)C(c2ccc(C)cc2)N(Cc2cccs2)C(=O)c2ccc3c(c2)OCCO3)cc1` (centres undefined), the AC50 [4] was 8.1 µM (active) and the AC50 [5] was 13.8 µM (active).
For `CC(C)[C@H](NC(=O)C1CCCC1)C(=O)N1CCC[C@H]1C(=O)NCCc1ccccc1Cl`, the IC50 (cells [6]) was > 29.9 µM (inactive), the EC50 [7] was 0.897 µM (active) and the IC50 [8] was 3.8 µM (active). The EC50 (cells [9]) was > 29.9 µM (inactive).
For `CCN(CC)S(=O)(=O)c1ccc(/C=C/C(=O)Nc2ccc(Br)cc2F)cc1`, the IC50 [10] was 5.05 µM (active).
In the case of `Cc1c(N/C=C2/C=C(Br)C(=O)OC2=O)c(=O)n(-c2ccccc2)n1C`, the IC50 [11] was 16 µM (inactive) and the IC50 [12] was 3 µM (active).
For `CN1CCN(C)/C(=N/c2ccc([N+](=O)[O-])cc2C(=O)Nc2ccccc2F)C1`, the IC50 [13] was 0.15 µM (active).
